The test system of one data set is granzyme B. The data set can be described thus: Granzyme B protein in supernatants by ELISA. It counts as cell-based, human. On the procedure: FIGS. 3A-3E depict the results of a study showing that downregulation of Cbl-b enhances the cytotoxicity of primary human NK cells. (FIGS. 3A and 3B) Primary human NK cells transduced with Cbl-b siRNA or Scr siRNA for 24 h were stimulated without (FIG. 3A) or with (FIG. 3B) a low concentration of IL-15 (2 ng/ml) for 16 h, then co-cultured with ^51Cr labeled Molm-13, MV4-11 or EOL-1 leukemia cell lines for 4 h, followed by quantification of specific tumor cell lysis. Each experiment was repeated with 6 different normal donors. (FIG. 3C) qRT-PCR was performed to quantify the granzyme B (GZMB) mRNA levels (n=8 donors) in siRNA- and Scr siRNA-transduced primary human NK cells incubated without or with IL-15 (10 ng/ml) for 16 h. (FIG. 3D) The concentration of the granzyme B protein in the supernatants of Cbl-b siRNA- and Scr siRNA-transduced primary human NK cells incubated without (688.1 pg/ml vs 525.4 pg/ml; P=0.0232) or with IL-15 (10 ng/ml) for 24 h (8789 pg/ml vs 3397 pg/ml; P=0.0232) was measured by ELISA (n=8 donors). (FIG. 3E) The level of granzyme B protein in Cbl-b siRNA- and Scr siRNA-transduced primary human NK cells incubated without or with IL-15 (10 ng/ml) for 24 h was measured by immunoblot analysis. The data are representative of three experiments. Scr-scrambled; *P<0.05, **P<0.01, ***P<0.001, ****P<0.0001 by One-way or Two-way ANOVA; ns, not significant. Data presented as mean±SEM.
(§1) ELISA. Primary NK cells were plated in an equivalent number of 100,000 cells/well in a 96-well plate in RPMI and supplemented with 10% FBS. Cells were treated with recombinant human IL-15 (10 ng/ml) for 24 h, and cell-free culture supernatant was collected and frozen at −80° C. for later use. IFN-γ concentration was measured by ELISA using anti-IFN-γ antibody from Thermo Fisher Scientific. Granzyme B concentration was measured by ELISA kit purchased from R&D.
Both groups were next incubated without or with IL-15 and co-cultured with ^51Cr labeled MV4-11, Molm-13, or EOL-1 leukemia cell lines, followed by assessment of specific lysis measured after 4 h of co-culture.
A general note: ELISA stands for enzyme-linked immunosorbent assay.

Data set [1] relates to IFN-γ. The data set can be described thus: Intracellular IFN-γ flow cytometry of siRNA-transduced NK cells. It counts as cell-based, human. The note with it: IL-15 (10 ng/ml) 24 h, n=5 donors. As to the method:
(§2) FIGS. 4A-4D depict the results of a study showing that downregulation of Cbl-b increases IFN-γ secretion in IL-15-activated primary human NK cells. (FIG. 4A) RNAseq was conducted using primary human NK cells transduced with either Cbl-b siRNA or Scr siRNA without or with incubation in IL-15 (10 ng/ml) for 16 h (4 donors for each group). […] (FIG. 4B) qRT-PCR was performed to quantify the mRNA levels of IFN-γ (n=6 donors) after IL-15 (10 ng/ml) 6 h stimulation. (FIG. 4C) The percentage of intracellular IFN-γ+ cells in un-transduced NK cells or those transduced with Cbl-b siRNA or Scr siRNA, each activated with IL-15 (10 ng/ml) for 24 h (11.5% vs 4.338%; P=0.0008; n=5 donors). (FIG. 4D) Supernatants were collected after IL-15 (10 ng/ml) for 24 h and IFN-γ concentrations measured by ELISA (18115 pg/ml vs 882.5 pg/ml; P=0.0099; n=7 donors). Scr-scrambled; *P<0.05, **P<0.01, ***P<0.001 by Student's two-tailed paired t-test or One-way ANOVA; ns, not significant. Data presented as mean±SEM.
FIGS. 9B-9D show intracellular flow cytometric analysis of CD56+ primary human NK cells transduced with Scr siRNA or transduced with Cbl-b siRNA, incubated with IL-18 (10 ng/ml), IL-12 (10 ng/ml) or IL-18 (10 ng/ml) plus IL-12 (10 ng/ml) for 24 h. Scr, scrambled; *P<0.05, ns, not significant. Data are presented as mean±SEM.
Flow cytometry. To determine protein cell surface expression via flow cytometry, cells were stained with monoclonal antibodies at room temperature for 20 minutes and washed with FACS buffer prior to analysis using a Fortessa X-20 flow cytometer (BD Biosciences). For IFN-γ intracellular flow cytometric analysis, […] GolgiPlug (BD Biosciences) was added for 4 h before cell harvest; cells were then permeabilized and fixed using a Cytofix/Cytoperm Fixation/Permeabilization Solution Kit (BD Biosciences), followed by analysis with a Fortessa X-20 flow cytometer. Intracellular flow cytometric analysis of Mertk was performed similarly except that GolgiPlug was not added. Data was analyzed by using Flowjo V10 software (Tree Star, Ashland, OR, USA).
(§3) To further explore how Cbl-b regulates the functions of primary human NK cells, we performed RNA-seq analyses using enriched primary NK cells from healthy donors transduced with Cbl-b siRNA or Scr siRNA without or with IL-15 treatment for 16 h (n=4 in each group). […] The intracellular results were supported by assessment IFN-γ secretion into the supernatant, in that IL-15-activated primary human NK cells transduced with Cbl-b siRNA expressed 10-fold higher levels of IFN-γ compared to NK cells transduced with Scr siRNA (FIG. 4D).
A general note: In flow cytometry, cells or beads pass a laser one at a time.

Data set [2] deals with IFN-γ. Put plainly: IFN-γ in supernatants by ELISA. It counts as cell-based, human. To be noted: IL-15 (10 ng/ml) 24 h, n=7 donors. On the procedure:
as §2, §1, §3

Data set [3] deals with Cbl-b. Put plainly: Cbl-b protein by immunoblot after JAK or AKT inhibitor pretreatment and IL-15/IL-2 activation of primary NK cells. It counts as cell-based, human. On the procedure:
FIGS. 2A-2E depict the results of a study showing that JAK-STAT and AKT pathways mediate upregulation of Cbl-b in NK cells. (FIG. 2A) Primary human NK cells were pretreated with the JAK3 inhibitor CP-690550 and the JAK1/2 inhibitor AZD1480 at various concentrations for 90 min prior to a 24 h activation by IL15 (10 ng/ml). NK cells were then harvested for quantification of Cbl-b protein expression by immunoblot analysis. Data are representative of 6 donors performed in a similar fashion. Densitometric quantification assessing the ratio of the Cbl-b protein to β-actin protein levels for 6 donors is summarized in (FIG. 2B) and (FIG. 2C). […] Data are representative of 5 donors performed in a similar fashion. Densitometric quantification assessing the ratio of the Cbl-b protein levels to β-actin protein levels for 5 donors is summarized in (FIG. 2E). *P<0.05, **P<0.01, ***P<0.001 by One-way ANOVA or Student's two-tailed paired t-test. Data are presented as mean±SEM.
(§4) Immunoblotting. Cells were harvested and suspended in RIPA lysis buffer (Thermo Fisher Scientific) on ice for 20 minutes. Equal amount of protein was resolved by 5-15% Criterion TGX gel (Bio-Rad) and then transferred onto a Nitrocellulose (NC) or PVDF membrane (Thermo Fisher Scientific). The membrane was incubated with a primary antibody at 4° C. overnight and an IRDye secondary antibody (Li-COR Biosciences) for 1 hour at room temperature. The immunoblots were visualized with Odyssey CLx Imager (Li-COR Biosciences). Densitometric analysis was performed to quantify intensity of gel bands with Image J (National Institutes of Health).
(§5) Since IL-15 utilizes select JAK-STAT proteins to initiate cellular activation, we pretreated primary NK cells with the JAK3 inhibitor CP-690550 (22) or the JAK1/2 inhibitor AZD1480 (23) in increasing concentrations prior to IL-15 stimulation then Cbl-b expression level was evaluated. […] As K562 cells were also able to induce expression of Cbl-b in primary human NK cells (FIG. 1B), we repeated the inhibitor experiments under the K562 cell stimulation.
(Immunoblotting shows a protein as a band on a membrane.)

The subject of data set [4] is Cbl-b. Put plainly: Cbl-b protein by immunoblot after inhibitor pretreatment and K562 co-culture of primary NK cells. It counts as cell-based, human. To be noted: 10 uM, 90 min pretreatment, 24 h co-culture with K562 (E/T=10:1), vs vehicle control. As to the method:
FIG. 7A Primary NK cells were pretreated with AZD1480 (10 uM), CP-690550 (10 uM) or Afuresertib (10 uM) for 90 min prior to a 24 h cocultured with K562 cells (E/T=10:1). The immunoblot data are representative of 3 donors in a similar fashion. Densitometric quantification assessing the ratio of Cbl-b protein levels to β-actin protein levels for 3 donors is summarized in FIG. 7B. *P<0.05, **P<0.01; ns, not significant. Data are presented as mean±SEM.
as §4, §5

Data set [5] has as its system Cbl-b. Put plainly: Cbl-b protein by immunoblot after stimulation of primary human NK cells with cytokines or activating antibody. The format is cell-based. On the procedure: (FIG. 1B) Enriched primary human NK cells were co-cultured with the K562 myeloid leukemia cell line (E/T ratio=10:1) for 24 h followed by immunoblot analysis. Summary data are from three independent experiments. (FIG. 1C) Primary human NK cells were treated with different concentrations of IL-15 for 24 h followed by immunoblot analysis (n=5 donors). (FIG. 1D) Equal numbers of purified CD56^+ human NK cells, CD56^bright NK cells and CD56^dim NK cells were sorted from peripheral blood mononuclear cells isolated by Ficoll, cultured and stimulated with IL-15 (20 ng/ml for 24 h) followed by immunoblot analysis. The data are representative of three independent experiments. Med, medium only; *P<0.05, **P<0.01 by two-tailed unpaired t-test or One-way ANOVA; ns, not significant. Data are presented as mean±SEM.
FIG. 6A Enriched primary human NK cells were cocultured with Molm-13 or MV4-11 leukemia cell lines (E/T ratio=10:1) for 24 h prior to assessment of Cbl-b by immunoblot analysis. […] FIG. 6B Enriched primary human NK cells were cultured overnight with an anti-NKG2D activating antibody (clone 1D11) (10 μg/ml) or mouse IgG (10 μg/ml) as control prior to assessment of Cbl-b by immunoblot analysis. […] Data are shown summarizes four independent experiments. […] Data are shown summarizes five independent experiments. FIG. 6E The expression of Cbl-b was assessed by qRT-PCR after primary human NK cells were incubated with K562 cells (E/T ratio=10:1) for 24 h. Data are shown summarizes five independent experiments. *P<0.05, **P<0.01, compared to the shortest time point. Data are presented as mean±SEM.
as §4
We assessed the expression of Cbl-b protein in primary human NK cells enriched from the blood of healthy donors in response to 24-hour stimulation by different cytokines. […] Since certain tumor cells can trigger NK cell activation, we co-cultured NK cells for 24 h with different tumor cell lines in order to assess this effect on the expression of Cbl-b.

The test system of data set [6] is Cbl-b. The data set can be described thus: Cbl-b mRNA by qRT-PCR after IL-15 or IL-2 treatment of primary human NK cells. To be noted: IL-15 (10 ng/ml) or IL-2 (150 IU/ml). The format is cell-based.
The mark [7] stands for this setting: 90 min pretreatment at various concentrations, then IL-15 (10 ng/ml) 24 h, vs vehicle control.

We go through five compounds from US20240299542A1, “NATURAL KILLER CELLS ENGINEERED TO REDUCE OR ELIMINATE CBL-B AND USES THEREOF” (City of Hope, priority 2021, published 2024).

For “Scr siRNA: scrambled Accell siRNA control, SEQ ID NO:2, UGGUUUACAUGUUGUGUGA (Accell modifications, chemistry not fully specified) [reference compound]”, the “concentration of granzyme B protein in supernatants” value in the data set with granzyme B (with IL-15 (10 ng/ml) 24 h, n=8 donors) was 3397 pg/mL; with granzyme B (without IL-15, n=8 donors), 525.4 pg/mL. Moreover, the “percentage of intracellular IFN-γ+ cells” value in the data set on IFN-γ [1] came out at 4.338%. Further, the “IFN-γ concentration in supernatants” value with IFN-γ [2] worked out at 882.5 pg/mL.

For `C[C@@H]1CCN(C(=O)CC#N)C[C@@H]1N(C)c1ncnc2[nH]ccc12` [CP-690550], the “expression of Cbl-b protein after inhibitor pretreatment” value in the data set with Cbl-b [3] (setting [7]) is “significant decrease”. The “Cbl-b expression after inhibitor pretreatment under K562 stimulation” value in the data set with Cbl-b [4] is on record as “only the AKT1/2/3 inhibitor Afuresertib rather than either of the two JAK inhibitors”.

In the case of `Cc1cc(Nc2nc(N[C@@H](C)c3ncc(F)cn3)ncc2Cl)n[nH]1` [AZD1480], the “expression of Cbl-b protein after inhibitor pretreatment” value in the data set on Cbl-b [3] (setting [7]) is on record as “significant decrease”. For the same compound, the “Cbl-b expression after inhibitor pretreatment under K562 stimulation” value in the data set on Cbl-b [4] is “only the AKT1/2/3 inhibitor Afuresertib rather than either of the two JAK inhibitors”.

For `Cn1ncc(Cl)c1-c1cc(C(=O)N[C@H](CN)Cc2cccc(F)c2)sc1Cl` [Afuresertib], the “expression of Cbl-b protein after inhibitor pretreatment” value with Cbl-b [3] (10 uM, 90 min pretreatment, then IL-15 (10 ng/ml) or IL-2 (150 IU/ml) 24 h) is given as “nearly identical results”. Also, in the data set with Cbl-b [4], the “Cbl-b expression after inhibitor pretreatment under K562 stimulation” value is reported as “significant downregulation”.

Regarding “IL-15: Recombinant human IL-15 protein obtained from National Institutes of Health”, in the data set on Cbl-b [5] (different concentrations of IL-15, 24 h), the “dose response of Cbl-b protein” value was “did not find evidence of a dose response change”. Further, in the data set on Cbl-b [5] (primary human NK cells, 24 h cytokine stimulation, compared to resting NK cells without cytokines), the “expression of Cbl-b protein (ratio to β-actin)” value was “induced an increase in the expression of Cbl-b”. Also, the “upregulation of Cbl-b mRNA at 24 h post stimulation” value in the data set on Cbl-b [6] (24 h) was “sustained”. In addition, the “time of peak Cbl-b mRNA” value with Cbl-b [6] (compared to unstimulated NK cells) is reported as 4 h.
